Assay results: patent US10300107B2, “Compositions and methods for CaMKII inhibitors and uses thereof” (THE REGENTS OF THE UNIVERSITY OF COLORADO, priority 2007, dated 2019)
“And” between values parts separate entries of the source, which are not always exact repeats. Equal values may be shown once. “Also recorded” adds a separate entry of the source. Read-outs that look alike come from different tables or passages of the source. Blank lines part the entries; values can stand above or below the compound they belong to. Where no end group is shown, it is not given here.

Experiments:
[1] = test system: CaMKII; format: biochemical; details: for potency of CaMKII inhibition of CN19 combination mutants: comparator as stated in the value; for IC50: read-out: IC50 of CaMKII inhibition; for effect of further mutation on potency of CaMKII inhibition: CN19a2v background
Method: CaMKII activity assays. Standard CaMKII assays were done for 1 min at 30° C. previously described, with 20 nM CaMKII (subunit, not holoenzyme concentration), 50 mM PIPES pH 7.2, 0.1 mg/ml BSA, 10 mM MgCl2, 100 μM [γ-^32P] ATP (˜1 Ci/mmol), 1 mM CaCl2, 1-2 μM CaM, and 30-60 μM AC2 peptide (or syntide2). The reactions were spotted onto Whatman P81 phosphocellulose paper rectangles (˜2×2.5 cm). To remove free radioactivity, the paper rectangles were rinsed and washed for 30 min under agitation in 0.5% phosphoric acid or water. […] Radioactivity of the bound peptides was quantified in a Beckman 6000TA scintillation counter by the Cherenkov method. Any changes of the standard protocol were done as indicated. For assays of the GFP-CaMKIIα mutants, kinase amounts were normalized by GFP fluorescence in the extract, and total protein was adjusted with Cos-7 extracts.

[2] = molecular target: calmodulin (CaM) (Homo sapiens, UniProt P0DP23); assay: Binding to calmodulin (slot blot, blot overlay, TA-CaM competition with CBD); details: for binding of biotinylated CaM to immobilized peptide: slot blot
Method: TA-labeled CaM represents reduced fluorescence after binding to CaMKII or its CaM binding domain (CBD; −0.05 nM kD for CaM^5; see also FIG. 9G).
Measured was AC2 phosphorylation as described^4. Error bars show s.e.m.

[3] = molecular target: CaMKI (Homo sapiens, UniProt Q14012); assay: CaMKI activity / inhibition; format: biochemical
Excerpt: For curve fit, the Hill coefficient was set as 1.

[4] = molecular target: T1, CaMKII binding to GST-NR2B-c (Homo sapiens, UniProt Q9UQM7); assay: Ca2+/CaM-induced CaMKII binding to immobilized GST-NR2B-c; details: Western blot of eluted CaMKII
T1 construct: made in house; host or cells: CaMKII: baculovirus/Sf9; GST-NR2B-c and CaM: bacteria
Method: CaMKII binding to NR2B-c was assessed as previously described. Briefly, GST-NR2B-c was immobilized on anti-GST coated microtiter plates, then overlaid with 100 nM CaMKII in presence of Ca^2+/CaM and 1 or 5 μM of various CN peptides. After extensive wash, protein was eluted from the plates by boiling in SDS-loading buffer. Eluted CaMKII was detected by Western-blot as described above.

[5] = test system: Langerhans' islets; assay: Glucose-induced insulin secretion from isolated Langerhans' islets; format: cell-based, rat; details: 11 mM glucose; EGTA 0.5 mM, KN93 10 μM, antCN27 5 μM, tatCN21 5 μM
Method: Insulin secretion. Langerhans' islets acutely isolated from adult male Wistar rats (Harlan) were obtained. […] Inhibitors or EGTA were added 30 min before stimulation. Insulin secreted into the medium during 90 min stimulation was measured using an ELISA kit (CrystalChem).

[6] = test system: hippocampal and cortical cultures; assay: Glutamate induced neuronal cell death measured by LDH release; format: cell-based, rat
Method: In another example, neuronal cell death is measured by LDH release. In this exemplary method, glutamate was used to induce neuronal cell death, A portion of CaMKIIN was fused to a cell penetrating molecule to generate tatCN21a construct.

Chain of CaMKI (Q14012 whole entry, species assumed): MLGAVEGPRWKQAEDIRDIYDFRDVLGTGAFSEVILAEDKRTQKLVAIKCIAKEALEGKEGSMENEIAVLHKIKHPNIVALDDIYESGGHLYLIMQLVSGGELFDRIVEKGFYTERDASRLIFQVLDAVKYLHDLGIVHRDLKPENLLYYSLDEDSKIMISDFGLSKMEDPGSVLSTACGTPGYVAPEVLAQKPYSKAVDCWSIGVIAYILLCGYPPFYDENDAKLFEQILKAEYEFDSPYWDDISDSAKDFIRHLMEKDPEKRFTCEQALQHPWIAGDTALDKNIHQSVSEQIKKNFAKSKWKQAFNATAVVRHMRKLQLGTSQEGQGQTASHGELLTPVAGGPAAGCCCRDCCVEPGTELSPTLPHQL

Compound: CC1CNCCN1S(=O)(=O)c1cccc2cnccc12 (stereo not drawn) [H7, reference compound]
CaMKII binding to immobilized GST-NR2B-c / NR2B [4]: did not

Compound: CN19a3: CN19 triple mutant P3A, K13A, R14A (KRAPKLGQIGRSAAVVIED)
potency of CaMKII inhibition of CN19 combination mutants [1]: significantly increased over CN19 wild type; also recorded: significantly increased potency compared to single mutant with the highest potency, R14A
potency of CaMKII inhibition of CN19 combination mutants ([1]; listed as a3): significantly increased potency of CaMKII inhibition over CN19 wild type; also recorded: slightly better inhibition than the aX mutant

Compound: CN19a2: CN19 double mutant P3A, R14A, SEQ ID NO: 25 (KRAPKLGQIGRSKAVVIED; Derived from CamKIIN with amino acid substitutions)
potency of CaMKII inhibition of CN19 combination mutants [1]: largest increase in CaMKII inhibition potency; also recorded: most potent double mutant of CN19
potency of CaMKII inhibition of CN19 combination mutants ([1]; listed as a2): higher potency than the a3 mutant; also recorded: significant inhibition even at 10 nM

Compound: V16D: CN19 position 16 substituted with D (rational mutagenesis) (KRAPKLGQIGRVKAVDIED)
Effects of individual CN19 mutations on CaMKII inhibition: column + ([1]; value = substituting residue listed under +): D*

Compound: CN17a: C-terminal truncation of CN21a by 4 amino acids (KRPPKLGQIGRSKRVVI)
inhibitory potency on CaMKII activity ([1]; CN truncation peptides, substrate peptides AC2 or syntide 2): still clearly affected CaMKII activity

Compound: tat: cell penetrating sequence YGRKKRRQRRR, SEQ ID NO:15 [reference compound]
effect on CaMKI activity [3]: statistically significant but much milder effects
binding of biotinylated CaM to immobilized peptide [2]: did not bind

Compound: O=C(O)CN(CCOCCOCCN(CC(=O)O)CC(=O)O)CC(=O)O [EGTA]
glucose-induced insulin secretion [5]: inhibited

Compound: N[C@@H](CCCP(=O)(O)O)C(=O)O [APV]
glutamate induced cell death ([6]; 7DIV cortical, added 1-6 hours post insult): did not
glutamate induced neuronal cell death ([6]; present during the insult): only reduces cell death when present during the insult

Second part, led by results:

IC50 of CaMKII inhibition ([1]; phosphorylation of syntide 2): single digit
Compound: KRPPKLGQIGRSKAVVIED [R14A]
increase of potency of CaMKII inhibition compared to CN19 [1]: over 10 fold
effect of single CN19 mutation on potency of CaMKII inhibition ([1]; compared to CN19 wild type): significantly increased potency; also recorded: very potent

Kd [2]: ~5 nM
competition with CBD for binding of TA-labeled CaM [2]: compete
binding of biotinylated CaM to immobilized peptide [2]: Direct binding
Compound: RQIKIWFQNRRMKWK [ant]
interference with Ca2+-dependent CaM binding to brain proteins ([2]; blot overlay assay, 5 μM peptide): also interfered with such CaM binding, but somewhat less efficiently than antCN27; also recorded: affect Ca^2+-dependent CaM binding

IC50 ([1]; phosphorylation of syntide 2): ~20 nM and 20 nM
IC50 [3]: ~18000 nM
Compound: KRAPKLGQIGRVKAVVIED [CN19a2v]
increase of potency of CaMKII inhibition compared to CN19 [1]: about 5 fold
potency of CaMKII inhibition of CN19 combination mutants [1]: without loss of inhibition potency; also recorded: significantly stronger compared to CN19a3 with additional S12V mutation; also recorded: did not reduce potency

IC50 ([1]; phosphorylation of syntide 2): ~1 nM
Compound: KRAPKLGQIGRQKAVVIED [CN19a2v V12Q]
effect of further mutation on potency of CaMKII inhibition [1]: significantly increase potency; also recorded: dramatically increase CaMKII inhibition

IC50 ([1]; phosphorylation of syntide 2): ~1 nM
Compound: KRAPKLGQIGRVKAVDIED [CN19a2v V16D]
effect of further mutation on potency of CaMKII inhibition [1]: significantly increase potency; also recorded: dramatically increase CaMKII inhibition

effect on CaMKI activity [3]: no significant effect
Compound: CN27: CaM-KIINtide, previously identified inhibitory region of CaM-KIIN, SEQ ID NO:17 (KRPPKLGQIGRSKRVVIEDDRIDDVLK; Derived from CaMKIIN) [reference compound]
inhibition of CaMKII isoforms α and β [1]: inhibit both major brain CaMKII isoforms, α and β

IC50 ([1]; phosphorylation of syntide 2): ~100 nM
Compound: KRPPKLGQIGRSKRVVIEDD [CN20]
